Assay results reported in patent US12234245B2, “Sulfonimidamide compounds as inhibitors of interleukin-1 activity” (Genentech, Inc., priority 2018, dated 2025).
Where two headings read alike, the source gives them in different places.

Key:
Type in all cases: cell-based
[1] = test system: PBMCs; test: CTG (CellTiter-Glo) viability assay in PBMCs; conditions: LPS and nigericin stimulated
Method: (§1) Human peripheral blood mononuclear cells (PBMCs), consisting of lymphocytes (T, B and NK cells), monocytes and dendritic cells, were freshly isolated from human peripheral blood from healthy donors. Cells were obtained through an IRB approved donor program by iXCells Biotechnologies where all the donors were tested for bacterial and viral infections. Cells were purified from peripheral blood using ficoll gradient centrifugation.
(§2) Fresh or cryopreserved PMBCs were seeded in V-bottom 96-well plate at 0.5-1×10^5 cells per well and incubated overnight at 37° C. with 5% CO2 in RPMI 1640 medium with GlutaMAX supplement, 4.5 g/L D-glucose, 10% Fetal Bovine Serum (FBS), […] Sodium Pyruvate, 1% Penicillin/Streptomycin, 10 mM HEPES and 0.05 mM of β-mercaptoethanol. Freshly isolated or cryopreserved KCs cells were seeded in flat-bottom 96-well plates at 0.6-1.5×10^5 cells/well and incubated overnight at 37° C. 5% CO2 in RPMI 1640 Medium with GlutaMAX supplement, FBS, 1% Penicillin/Streptomycin and 10 mM HEPES. The following day, the cells were primed with 100 ng/mL of lipopolysaccharides (LPS; Sigma Aldrich) in FBS-free RPMI 1640 for 3 h. After the priming step, the media was removed and PBMCs were pre-incubated with serial concentrations of test compounds (0.00017-10 uM) or vehicle (DMSO) for 30 min in FBS-free media prior to addition of the NLRP3 activator. Cells were then stimulated with 10 uM Nigericin (Sigma Aldrich; InvivoGen) for 1.5 h. Plates were centrifuged at 1,500 rpm for 3 minutes to pellet cells and supernatant was transferred into new plates for subsequent experiments.
Viability of compound treated cells was measured using CellTiter-Glo® assay (Promega, Madison, Wis.) that measures the ATP content of cells which is proportional to the number of live cells within a well. This is a counter-screen to establish that the reduction of IL-1β levels in LPS and nigericin stimulated and compound treated cells is not due to cytotoxicity, but rather through the inhibition of the inflammasome pathway. Compounds inhibiting NRLP3 inflammasome activation ultimately increase the viability of LPS and nigericin stimulated cells by blocking NLRP3 mediated pyroptosis that would otherwise lead to cell lysis.

[2] = biological target: T1, NLRP3 inflammasome (Homo sapiens, UniProt Q96P20); test: THP-1 ASC-GFP speck assay; design: host or cells: THP-1 ASC-GFP cells, PMA-differentiated, LPS-primed, nigericin-stimulated; conditions: THP-1 ASC-GFP cells, PMA differentiated, LPS primed, 10 μM nigericin; read-out: THP1 ASC Speck IC50
Procedure, shortened: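 PMA-differentiated (500 ng/ml, overnight) THP-1 ASC-GFP cells primed with 1 μg/mL LPS for 3 h, preincubated 30 min with compound (top 40 μM, 2-fold, 20 points), then stimulated with 10 μM nigericin for 90 min at 37 °C. After fixation and Hoechst staining, imaging gave the percentage of cells bearing a GFP ASC speck.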

[3] = biological target: T1, NLRP3 inflammasome; test: NLRP3 inflammasome activation assay in PBMCs, IL-1β release (ELISA / HTRF); design: were freshly isolated from human peripheral blood from healthy donors; StemCells Technologies; host or cells: primary human PBMCs, LPS-primed, nigericin-stimulated; conditions: LPS primed
Method: Some of the following assays were used to determine the inhibitory activity of the compounds on the NLRP3 inflammasome using a common inflammasome activation stimuli—nigericin.
as §1, §2
For ELISA assays cells were seeded into 96-well plates. Post study, supernatants were removed and the levels of mature IL-1β, IL18 and TNFα (Quantikine ELISA, R&D systems) were measured in cell conditioned media by ELISA according to manufacturer's instructions.
Human frozen PBMCs were purchased from StemCells Technologies. Cells were rapidly thawed in 37° C. water bath and resuspended in fresh assay media consisting of RPMI 1640 Medium containing 1% sodium pyruvate, 10 mM HEPES, 2.5 g/L glucose and 55 μM 2-Mercaptoethanol. Cell density was adjusted to 8.1×10^5 cells/mL. Cells were primed by adding lipopolysaccharide (Invivogen Ultrapure lipopolysaccharide from E. coli, tlrl-3pelps) at a final concentration of 100 ng/mL in cell suspension. 37 μL of cell suspension with LPS was seeded per well of a 384 well plate and incubated for 3 hours at 37° C. and 5% CO2. After priming, PBMCs were preincubated with serially diluted test compounds with starting concentration of 40 μM followed by 2-fold dilution for a 20-point curve or vehicle (DMSO) for 30 min in assay media at 37° C. and 5% CO2. Cells were then stimulated with 10 μM nigericin (Invivogen, tlrl-nig-5) for 90 min at 37° C. and 5% CO2 to activate NLRP3 dependent inflammasome pathway and IL-1β release in cell culture supernatant. Cells were centrifuged at 1200 RPM for 1 min and 40 μL of supernatant was transferred into fresh plates and stored at −80° C. until IL-1β analysis.
16 μL of supernatant was added to white 384 well HTRF plates, followed by addition of 4 μL of HTRF cocktail in each well. Plates were quickly centrifuged, sealed and incubated overnight at room temperature. Next day, HTRF signal was read on a Pherastar and ratio of 665/620 was calculated based on manufacturer's protocol to obtain concentration of IL-1β in cell culture supernatant.

[4] = human PBMCs, read-out: PBMC CTG IC50
[5] = 10 μM nigericin, read-out: PBMC IL-1β IC50
[6] = 10 uM nigericin, read-out: PBMC IL-1 β IC50

T1 sequence (Q96P20 whole entry): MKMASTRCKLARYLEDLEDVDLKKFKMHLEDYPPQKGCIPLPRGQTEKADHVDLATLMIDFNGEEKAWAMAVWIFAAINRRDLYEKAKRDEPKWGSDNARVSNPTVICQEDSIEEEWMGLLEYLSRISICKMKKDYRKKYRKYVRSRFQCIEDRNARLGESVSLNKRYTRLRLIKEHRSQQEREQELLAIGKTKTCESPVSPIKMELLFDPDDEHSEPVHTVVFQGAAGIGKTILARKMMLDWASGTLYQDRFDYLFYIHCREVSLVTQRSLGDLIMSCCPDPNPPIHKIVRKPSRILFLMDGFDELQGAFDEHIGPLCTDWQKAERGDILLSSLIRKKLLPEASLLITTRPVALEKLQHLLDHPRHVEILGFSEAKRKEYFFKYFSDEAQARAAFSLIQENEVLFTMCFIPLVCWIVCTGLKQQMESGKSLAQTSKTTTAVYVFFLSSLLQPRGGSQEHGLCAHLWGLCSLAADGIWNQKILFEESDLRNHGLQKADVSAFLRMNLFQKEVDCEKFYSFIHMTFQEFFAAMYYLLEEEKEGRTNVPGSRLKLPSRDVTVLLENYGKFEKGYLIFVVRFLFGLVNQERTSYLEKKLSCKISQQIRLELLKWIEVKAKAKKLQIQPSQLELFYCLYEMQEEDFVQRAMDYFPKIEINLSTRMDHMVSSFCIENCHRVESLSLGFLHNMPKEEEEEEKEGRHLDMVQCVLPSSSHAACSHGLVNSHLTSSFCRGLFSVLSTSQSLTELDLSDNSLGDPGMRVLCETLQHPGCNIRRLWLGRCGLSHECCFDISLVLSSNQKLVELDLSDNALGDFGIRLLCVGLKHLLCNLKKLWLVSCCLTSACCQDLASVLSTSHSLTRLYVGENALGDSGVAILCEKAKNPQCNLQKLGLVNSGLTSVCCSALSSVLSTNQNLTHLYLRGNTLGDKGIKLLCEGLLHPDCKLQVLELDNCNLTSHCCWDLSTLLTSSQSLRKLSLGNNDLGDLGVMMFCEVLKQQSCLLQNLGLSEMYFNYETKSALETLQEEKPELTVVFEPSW

`CC(C)c1cc(F)cc(C(C)C)c1NC(=O)N=S(N)(=O)c1cnn2c1OCCC2` (single isomer, unassigned) [Example 8] showed an IC50 [1, 4] of 2 nM, an IC50 [2] of 9400 nM and an IC50 [3, 5] of 1000 nM.

`NS(=O)(=NC(=O)Nc1c2c(c(F)c3c1CCC3)CCC2)c1cnn2c1OCCC2` (single isomer, unassigned) [Example 22] was tested, and the IC50 [1, 4] was 66 nM, the IC50 [2] was 150 nM and the IC50 [3, 5] was 95 nM.

Work on `CNC1COc2c(S(N)(=O)=NC(=O)Nc3c4c(cc5c3CCC5)CCC4)cnn2C1` (single isomer, unassigned) [Example 25] yielded an IC50 [1, 4] of 8 nM and an IC50 [3, 5] of 300 nM.

For `NS(=O)(=NC(=O)Nc1c2c(cc3c1CCC3)CCC2)c1cnn2c1OCC(NCCF)C2` (single isomer, unassigned) [Example 35], the IC50 ([1]; Homo sapiens, PBMC) was 250 nM and the IC50 [3, 5] was 180 nM.

`NS(=O)(=NC(=O)Nc1c2c(cc3c1CCC3)CCC2)c1cnn2c1OCC(NCCF)C2` (single isomer, unassigned) [Example 36] showed an IC50 [1, 4] of 170 nM, an IC50 [2] of 66 nM and an IC50 [3, 5] of 50 nM.

Compound `COC1CN(C2COc3c(S(N)(=O)=NC(=O)Nc4c5c(cc6c4CCC6)CCC5)cnn3C2)C1` (single isomer, unassigned) [Example 38] has an IC50 [1, 4] of 1160 nM, an IC50 [2] of 1500 nM and an IC50 [3, 5] of 2030 nM.

`COC1CN(C2COc3c(S(N)(=O)=NC(=O)Nc4c5c(cc6c4CCC6)CCC5)cnn3C2)C1` (single isomer, unassigned) [Example 39] showed an IC50 [1, 4] of 150 nM and an IC50 [3, 5] of 19 nM.

Work on `CC1CCOc2c(S(N)(=O)=NC(=O)Nc3c4c(cc5c3CCC5)CCC4)cnn2C1` (single isomer, unassigned) [Example 66] yielded an IC50 [2] of over 20000 nM and an IC50 [3, 5] of over 20000 nM.

Compound `CC1CCOc2c(S(N)(=O)=NC(=O)Nc3c4c(cc5c3CCC5)CCC4)cnn2C1` (single isomer, unassigned) [Example 67] has an IC50 [2] of 1400 nM and an IC50 [3, 5] of 220 nM.

`N#CNS(=O)(=NC(=O)Nc1c2c(cc3c1CCC3)CCC2)c1cnn2c1OCCC2` (single isomer, unassigned) [Example 68] showed an IC50 [2] of 330 nM and an IC50 [3, 5] of 380 nM.

With `N[C@@H]1COc2c([S@@](N)(=O)=NC(=O)Nc3c4c(cc5c3CCC5)CCC4)cnn2C1` [Example 59, (S,6S)-6-amino-N′-((1,2,3,5,6,7-hexahydro-s-indacen-4-yl)carbamoyl)-6,7-dihydro-5H-pyrazolo[5,1-b][1,3]oxazine-3-sulfonimidamide] the IC50 [2] was 260 nM and the IC50 [3, 5] was 95 nM.

In the case of `CO[C@@H]1COc2c(S(=N)(=O)NC(=O)Nc3c4c(cc5c3CCC5)CCC4)cnn2C1` (stereo partly shown) [drawing 650], the IC50 [1, 4] is reported as under 100 nM and the IC50 [3, 6] is reported as under 100 nM.

With `CC(C)c1cc(F)cc(C(C)C)c1NC(=O)NS(=N)(=O)c1cnn2c1OCCC2` (stereo not shown) [drawing 651] the IC50 [1, 4] was 100 to 1000 nM and the IC50 [3, 6] was 100 to 1000 nM.

In the case of `CC(C)c1cc(F)cc(C(C)C)c1NC(=O)NS(=N)(=O)c1cnn2c1OCCC2` (stereo not shown) [drawing 655], the IC50 ([1]; Homo sapiens, PBMC) is reported as under 100 nM and the IC50 [3, 6] is reported as 100 to 1000 nM.

Work on `CC(C)c1cc(F)cc(C(C)C)c1NC(=O)NS(=N)(=O)c1cnn2c1OCCC2` (stereo not shown) [drawing 656] yielded an IC50 [1, 4] of under 100 nM and an IC50 [3, 6] of 100 to 1000 nM.
